We go through four compounds from patent US5456908A, “Polyamine-polyamine and polyamine-protein transport inhibitor conjugates and their use as pharmaceuticals and in research relating to polyamine transport” (priority 1994, dated 1995).

In data set [1] the test system is cultured pulmonary artery smooth muscle cells. In words: 14C-polyamine uptake in cultured pulmonary artery smooth muscle cells. The data set is classed as cell-based, bovine. As to the method:
After this 30 minute period the cell-associated radioactivity was then measured to determine the uptake of polyamine by the cell culture.
Cell associated radioactivity was then measured.

Data set [2] has as its system MES-SA human uterine sarcoma cells.
Experimental: (§4) Cytotoxicity was assessed using the MTT assay in MES-SA and DX5 uterine sarcoma cell lines after a 24 hours exposure to ascending concentrations of the putrescine polymeric conjugates (poly-PUT conjugates) or its vehicle.
(§5) Complimentary experiments were conducted to determine whether the polyamine uptake inhibitors differentially affected the cytotoxicity and cellular uptake of vinblastine in MDR-negative and MDR-positive uterine sarcoma cells. […] The MTT assay was used to quantify the IC50 for vinblastine cytotoxicity in MES-SA and DX5 cells in the presence and absence of treatment with 100 μM poly-PUT. The calculation of cytotoxicity in these experiments accounted for the lethality associated with use of the conjugate alone.
Data set [3] concerns DX5 human uterine sarcoma cells (MDR-positive).
Experimental: as §4, §5
The test system is the same in data set [4]. The data set can be described thus: MTT cytotoxicity assay, DX5. Particulars: for IC50: Homo sapiens.
Experimental: as §4, §5
The subject of data set [5] is MES-SA human uterine sarcoma cells. The data set can be described thus: MTT cytotoxicity assay, MES-SA.
Experimental: as §4, §5
The subject of data set [6] is cultured pulmonary artery smooth muscle cells. In words: Hypoxia-induced fibronectin synthesis. The data set is classed as cell-based, bovine. The text has this: This experiment was effected because hypoxic pulmonary hypertension is accompanied by the deposition of large quantities of fibronectin around pulmonary arteries. Therefore, there is some belief by researchers, including the present inventors, that the increased deposition of this protein may be an important cause of the sustained elevation in pulmonary arterial blood pressure. Also, hypoxia seems to cause pulmonary hypertension by a mechanism related to increased polyamine transport rather than increased de novo polyamine synthesis.

The test system of data set [7] is MES-SA human uterine sarcoma cells. The data set can be described thus: 14C-polyamine uptake, MES-SA. The data set is classed as cell-based. Particulars: DFMO (1 mM), 24 hours. As to the method: (§1) Additional studies were conducted to determine whether MES-SA and DX5 cell lines express a polyamine transport system, and, if so, whether this system(s) was inhibited by the poly-PUT and poly-SPM conjugate. […] In the current studies, ^14 C-SPD was added in concentrations of 3 μM and cells were incubated for 30 minutes at selected temperatures (4° and 37° C). The cells were rinsed with Hanks buffer, digested for 1 hour in 1N NaOH, and cell-associated radioactivity was determined. ^14 C-SPD uptake rate was normalized to protein content. Specific, carrier-mediated polyamine uptake was […] determined at […].
(§2) In many cells, DFMO increases polyamine transport. This is believed to be a compensatory mechanism that protects these cells from polyamine depletion. […] We therefore examined the impact of DFMO on polyamine transport rate and on vinblastine accumulation and cytotoxicity in MES-SA and DX5 cells.

The test system of data set [8] is DX5 human uterine sarcoma cells (MDR-positive). In words: 14C-polyamine uptake, DX5. The data set is classed as cell-based. Particulars: DFMO (1 mM), 24 hours. As to the method: as §1, §2
Data set [9] deals with MES-SA human cancer cells. The data set can be described thus: Cellular polyamine content by HPLC, MES-SA. The conditions noted are these: DFMO 1 mM, Poly-SPM 20 μM. It is filed as cell-based. As to the method:
(§3) To determine if the cytotoxicity and inhibition of polyamine transport evoked by the polyamine conjugates was,associated with depletion of cell polyamine contents, additional experiments were conducted which used HPLC to measure contents of PUT, SPD, and SPM in human uterine sarcoma and leukemia cells in the presence of poly-SPM, DFMO, and combined treatment with poly-SPM and DFMO. The latter combination was tested to determine if blockade of both transport and synthesis would promote greater decreases in polyamine content than either intervention alone. […] Further studies are planned to obtain further information regarding interactions between these pathways and their suitabilities as pharmacologic targets.

Another data set has as its system DX5 human cancer cells. In words: Cellular polyamine content by HPLC, DX5. It is filed as cell-based. Particulars: DFMO 1 mM, Poly-SPM 20 μM. As to the method: as §3
Another data set deals with K562 human cancer cells. In words: Cellular polyamine content by HPLC, K562. The data set is classed as cell-based. The conditions noted are these: DFMO 1 mM, Poly-SPM 20 μM. The method, then:
as §3

In data set [10] the test system is K562/R7 human cancer cells. In words: Cellular polyamine content by HPLC, K562/R7. The data set is classed as cell-based. Particulars: DFMO 1 mM, Poly-SPM 20 μM. The method, then: as §3
For data set [11], the system named is MES-SA human uterine sarcoma cells. In words: Cellular content of MDR substrates (vinblastine, Taxol), MES-SA. It is filed as cell-based. The conditions noted are these: DFMO (1 mM).
Data set [12] has as its system DX5 human uterine sarcoma cells (MDR-positive). In words: Cellular content of MDR substrates (vinblastine, Taxol), DX5. It is filed as cell-based. The conditions noted are these: DFMO (1 mM).
Experimental: Complimentary experiments were conducted to determine whether the polyamine uptake inhibitors differentially affected the cytotoxicity and cellular uptake of vinblastine in MDR-negative and MDR-positive uterine sarcoma cells.
In data set [13] the test system is L1210-MGBGr leukemic cell line deficient in polyamine transport. The conditions noted are these: polyamine synthesis blocked by DFMO; Ask et al.; cited from earlier work.
Data set [14] relates to non-mutant polyamine transport L1210 cells. Particulars: DFMO treatment; Ask et al.; cited from earlier work.
In data set [15] the test system is R7 cells (MDR-positive variant of K567). In words: Cytotoxicity, R7 leukemia cells. Particulars: DFMO at 1 mM concentration; MDR-positive variant of K562.
In data set [16] the test system is K567 Human leukemia cells. In words: Cytotoxicity, K567 leukemia cells. Particulars: DFMO at 1 mM concentration; printed K562.
In data set [17] the test system is cultured pulmonary artery smooth muscle cells treated with DFMO. The data set can be described thus: 14C-polyamine uptake in DFMO-treated pulmonary artery smooth muscle cells. Particulars: Bos taurus, 24 h, read-out: increase of polyamine uptake relative to control cells.
Experimental: DFMO treatment consisted of the addition of 1 mM of DFMO to the cultures followed by a 24 hour incubation period.
After DFMO treatment and incubation, the respective conjugates were added in amounts ranging from about 0 to 20 μM simultaneously with 3 μM of a specific ^14 C-polyamine and the cells allowed to incubate for 30 minutes. After incubation, the content of cell associated radioactivity was determined.
Setting [18] is: conjugate 0-20 μM with 3 μM 14C-polyamine, 30 minutes.

Read-outs that look alike come from different tables or passages of the source.

For the compound “Spd-BSA: conjugate between bovine serum albumin and spermidine using glutaraldehyde as a coupling agent”, in data set [1] (setting [18]), the “uptake of 14C-putrescine” value is recorded as “inhibited” and the “uptake of 14C-spermidine” value is “inhibited”.

For the compound `CC[C@]1(O)C[C@@H]2CN(CCc3c([nH]c4ccccc34)[C@@](C(=O)OC)(c3cc4c(cc3OC)N(C)[C@H]3[C@@](O)(C(=O)OC)[C@H](OC(C)=O)[C@]5(CC)C=CCN6CC[C@]43[C@@H]65)C2)C1` [Vinblastine], the IC50 stood at 7 nM in data set [2]; 116 nM in data set [3]; 600 nM in data set [4] (read-out: IC50, vinblastine cytotoxicity); 500 nM in [4] (read-out: IC50 for vinblastine); 5 nM in data set [5] (Homo sapiens, MES-SA, read-out: IC50, vinblastine cytotoxicity).

For `COc1ccc(CCN(C)CCCC(C#N)(c2ccc(OC)c(OC)c2)C(C)C)cc1OC` (stereo not drawn) [verapamil], in data set [1] (agents known to inhibit the MDR, data not shown, 30 min), the “suppression of polyamine transport” value is 50-75%.

As for `NCCCC(N)(C(=O)O)C(F)F` (stereo not drawn) [DFMO, α-difluoro-methylornithine], the “Fibronectin Synthesis” value in data set [6] (Hypoxic) worked out at 0.09 OD/mg protein; in data set [6] (Normoxic), 0.07 OD/mg protein. For the same compound, the “14C-Polyamine uptake, PUT” value was 0.67 ± 0.01 pmoles/min/mg protein in data set [7] and 1.1 ± 0.04 pmoles/min/mg protein in [8]. The “14C-Polyamine uptake, SPD” value is 7.3 ± .06 pmoles/min/mg protein in data set [7] and 1.6 ± .08 pmoles/min/mg protein in data set [8]. The “Cellular Polyamine Content, SPD” value worked out at 6100 pmoles/mg protein in [9], 4191 pmoles/mg protein with DX5 human cancer cells, 15791 pmoles/mg protein in the data set on K562 human cancer cells and 15809 pmoles/mg protein in [10]. In addition, the “Cellular Polyamine Content, SPM” value amounted to 8824 pmoles/mg protein in [9], 6831 pmoles/mg protein with DX5 human cancer cells, 17024 pmoles/mg protein with K562 human cancer cells and 15083 pmoles/mg protein in [10]. Moreover, the “3H-Vinblastine Content” value turned out to be 840 ± 28 pmoles/mg protein in data set [11] and 195 ± 8 pmoles/mg protein in [12]. For the same compound, in [13], the cure rate is 33%. For the same compound, the “increase in survival time” value in data set [14] is “two”. Moreover, the toxicity to cells entry in [4] (DFMO at 1 mM concentration, MDR-positive variant of MES-SA) was “not toxic”; in data set [5] (DFMO at 1 mM concentration), “not toxic”; in data set [15] it was “not toxic”; in [16] it was “not toxic”. Besides, in [4] (DFMO treatment, vinblastine concentrations up to 5 μM), the “effect of DFMO treatment on sensitivity to vinblastine” value is on record as “complete resistance”. Moreover, the “effect of DFMO treatment on the IC50 value for vinblastine” value in [5] (DFMO treatment) was “failed to affect”. In [17], the activation at 1000 µM was around 350%.
